Experimental data published in the NIST ThermoML archive (doi:10.1016/j.fluid.2004.12.005).
Where “and” joins values, the source holds several entries; their conditions need not be identical. Equal values may be shown once.

Assays:
[1] = Solid-liquid equilibrium temperature; details: 100 kPa; Crystal; visual observation
[2] = activity coefficient (dimensionless); of the first substance listed, at infinite dilution; xn = mol fraction of the nth substance listed; details: Liquid, Chromatography, x1 = 0
[3] = excess molar enthalpy (molar enthalpy of mixing); xn = mol fraction of the nth substance listed; details: Liquid, Flow calorimetry

Cc1ccc(C)cc1 [1,4-dimethylbenzene]
Details	Solid-liquid equilibrium temperature [K]
[1]	286.45

CC(=O)OC(C)C [1-methylethyl ethanoate] + CCCCCCCCCC
[2]
Details	activity coefficient
303.16 K	2.56
313.14 K	2.48
323.17 K	2.41
333.16 K	2.36

CC(=O)OC(C)C [1-methylethyl ethanoate] + CCCCCCCCCCCC
[2]
Details	activity coefficient
303.16 K	2.82
313.17 K	2.66
323.2 K	2.52
333.16 K	2.42

c1ccccc1 [benzene]
Details	Solid-liquid equilibrium temperature [K]
[1]	278.94

CCCCCCCCCC [decane] + CCOC(C)=O
[3]
Details	excess molar enthalpy [kcal/mol]
363.15 K, 1397 kPa, x2 = 0.0952	0.112
363.15 K, 1397 kPa, x2 = 0.1817	0.198
363.15 K, 1397 kPa, x2 = 0.2607	0.261
363.15 K, 1397 kPa, x2 = 0.3332	0.304
363.15 K, 1397 kPa, x2 = 0.3998	0.333
363.15 K, 1397 kPa, x2 = 0.4614	0.349
363.15 K, 1397 kPa, x2 = 0.5183	0.356
363.15 K, 1397 kPa, x2 = 0.5712	0.355
363.15 K, 1397 kPa, x2 = 0.6205	0.347
363.15 K, 1397 kPa, x2 = 0.6665	0.335
363.15 K, 1397 kPa, x2 = 0.7095	0.316
363.15 K, 1397 kPa, x2 = 0.7499	0.292
363.15 K, 1397 kPa, x2 = 0.7878	0.266
363.15 K, 1397 kPa, x2 = 0.8234	0.236
363.15 K, 1397 kPa, x2 = 0.8571	0.202
363.15 K, 1397 kPa, x2 = 0.8888	0.167
363.15 K, 1397 kPa, x2 = 0.9189	0.129
363.15 K, 1397 kPa, x2 = 0.9473	0.0868
363.15 K, 1397 kPa, x2 = 0.9743	0.0437
413.15 K, 1342 kPa, x2 = 0.0952	0.116
413.15 K, 1342 kPa, x2 = 0.1817	0.204
413.15 K, 1342 kPa, x2 = 0.2607	0.268
413.15 K, 1342 kPa, x2 = 0.3332	0.314
413.15 K, 1342 kPa, x2 = 0.3998	0.346
413.15 K, 1342 kPa, x2 = 0.4614	0.363
413.15 K, 1342 kPa, x2 = 0.5183	0.371
413.15 K, 1342 kPa, x2 = 0.5713	0.372
413.15 K, 1342 kPa, x2 = 0.6205	0.363
413.15 K, 1342 kPa, x2 = 0.6665	0.351
413.15 K, 1342 kPa, x2 = 0.7095	0.329
413.15 K, 1342 kPa, x2 = 0.7499	0.306
413.15 K, 1342 kPa, x2 = 0.7878	0.277
413.15 K, 1342 kPa, x2 = 0.8234	0.244
413.15 K, 1342 kPa, x2 = 0.8571	0.209
413.15 K, 1342 kPa, x2 = 0.8888	0.171
413.15 K, 1342 kPa, x2 = 0.9189	0.131
413.15 K, 1342 kPa, x2 = 0.9473	0.0884
413.15 K, 1342 kPa, x2 = 0.9743	0.0466

CCOC(C)=O [ethyl acetate] + CCCCCC
[3]
Details	excess molar enthalpy [kcal/mol]
363.15 K, 1583 kPa, x2 = 0.0377	0.042
363.15 K, 1583 kPa, x2 = 0.0764	0.0851
363.15 K, 1583 kPa, x2 = 0.1162	0.128
363.15 K, 1583 kPa, x2 = 0.157	0.164
363.15 K, 1583 kPa, x2 = 0.1989	0.196
363.15 K, 1583 kPa, x2 = 0.242	0.228
363.15 K, 1583 kPa, x2 = 0.2862	0.254
363.15 K, 1583 kPa, x2 = 0.3318	0.275
363.15 K, 1583 kPa, x2 = 0.3786	0.292
363.15 K, 1583 kPa, x2 = 0.4269	0.305
363.15 K, 1583 kPa, x2 = 0.4765	0.309
363.15 K, 1583 kPa, x2 = 0.5277	0.31
363.15 K, 1583 kPa, x2 = 0.5804	0.304
363.15 K, 1583 kPa, x2 = 0.6347	0.291
363.15 K, 1583 kPa, x2 = 0.6908	0.267
363.15 K, 1583 kPa, x2 = 0.7487	0.237
363.15 K, 1583 kPa, x2 = 0.8084	0.197
363.15 K, 1583 kPa, x2 = 0.8702	0.146
363.15 K, 1583 kPa, x2 = 0.934	0.0799
413.15 K, 1376 kPa, x2 = 0.0377	0.0453
413.15 K, 1376 kPa, x2 = 0.0765	0.0863
413.15 K, 1376 kPa, x2 = 0.1162	0.126
413.15 K, 1376 kPa, x2 = 0.1571	0.162
413.15 K, 1376 kPa, x2 = 0.199	0.195
413.15 K, 1376 kPa, x2 = 0.2421	0.224
413.15 K, 1376 kPa, x2 = 0.2864	0.251
413.15 K, 1376 kPa, x2 = 0.332	0.271
413.15 K, 1376 kPa, x2 = 0.3788	0.288
413.15 K, 1376 kPa, x2 = 0.427	0.301
413.15 K, 1376 kPa, x2 = 0.4767	0.305
413.15 K, 1376 kPa, x2 = 0.5279	0.306
413.15 K, 1376 kPa, x2 = 0.5806	0.3
413.15 K, 1376 kPa, x2 = 0.6349	0.288
413.15 K, 1376 kPa, x2 = 0.691	0.266
413.15 K, 1376 kPa, x2 = 0.7488	0.236
413.15 K, 1376 kPa, x2 = 0.8086	0.196
413.15 K, 1376 kPa, x2 = 0.8703	0.144
413.15 K, 1376 kPa, x2 = 0.934	0.0788

CCOC(C)=O [ethyl acetate] + CCCCCCCCCC
[2]
Details	activity coefficient
303.16 K	3.07
313.14 K	2.95
323.17 K	2.84
333.16 K	2.75

CCOC(C)=O [ethyl acetate] + CCCCCCCCCCCC
[2]
Details	activity coefficient
303.16 K	3.25
313.17 K	3.05
323.2 K	2.88
333.16 K	2.71

CCCCCCCCCCCCCC(=O)OCC [ethyl tetradecanoate]
Details	Solid-liquid equilibrium temperature
[1]	286.33 K and 286.36 K

COC(C)=O [methyl ethanoate] + CCCCCC
[3]
Details	excess molar enthalpy [kcal/mol]
363.15 K, 1617 kPa, x1 = 0.0801	0.119
363.15 K, 1617 kPa, x1 = 0.1552	0.211
363.15 K, 1617 kPa, x1 = 0.2259	0.28
363.15 K, 1617 kPa, x1 = 0.2925	0.331
363.15 K, 1617 kPa, x1 = 0.3554	0.365
363.15 K, 1617 kPa, x1 = 0.4148	0.386
363.15 K, 1617 kPa, x1 = 0.471	0.397
363.15 K, 1617 kPa, x1 = 0.5244	0.398
363.15 K, 1617 kPa, x1 = 0.575	0.392
363.15 K, 1617 kPa, x1 = 0.6232	0.382
363.15 K, 1617 kPa, x1 = 0.669	0.361
363.15 K, 1617 kPa, x1 = 0.7127	0.337
363.15 K, 1617 kPa, x1 = 0.7544	0.308
363.15 K, 1617 kPa, x1 = 0.7942	0.274
363.15 K, 1617 kPa, x1 = 0.8322	0.237
363.15 K, 1617 kPa, x1 = 0.8687	0.196
363.15 K, 1617 kPa, x1 = 0.9036	0.151
363.15 K, 1617 kPa, x1 = 0.937	0.103
363.15 K, 1617 kPa, x1 = 0.9692	0.0525
413.15 K, 1376 kPa, x1 = 0.0801	0.119
413.15 K, 1376 kPa, x1 = 0.1552	0.215
413.15 K, 1376 kPa, x1 = 0.2259	0.287
413.15 K, 1376 kPa, x1 = 0.2925	0.34
413.15 K, 1376 kPa, x1 = 0.3553	0.377
413.15 K, 1376 kPa, x1 = 0.4148	0.401
413.15 K, 1376 kPa, x1 = 0.471	0.413
413.15 K, 1376 kPa, x1 = 0.5244	0.415
413.15 K, 1376 kPa, x1 = 0.575	0.41
413.15 K, 1376 kPa, x1 = 0.6232	0.399
413.15 K, 1376 kPa, x1 = 0.669	0.379
413.15 K, 1376 kPa, x1 = 0.7127	0.354
413.15 K, 1376 kPa, x1 = 0.7544	0.321
413.15 K, 1376 kPa, x1 = 0.7942	0.286
413.15 K, 1376 kPa, x1 = 0.8322	0.246
413.15 K, 1376 kPa, x1 = 0.8687	0.203
413.15 K, 1376 kPa, x1 = 0.9036	0.155
413.15 K, 1376 kPa, x1 = 0.937	0.107
413.15 K, 1376 kPa, x1 = 0.9692	0.0543

COC(C)=O [methyl ethanoate] + CCCCCCCCCC
[3]
Details	excess molar enthalpy [kcal/mol]
363.15 K, 1582 kPa, x1 = 0.1148	0.164
363.15 K, 1582 kPa, x1 = 0.2149	0.282
363.15 K, 1582 kPa, x1 = 0.303	0.361
363.15 K, 1582 kPa, x1 = 0.3811	0.413
363.15 K, 1582 kPa, x1 = 0.4509	0.442
363.15 K, 1582 kPa, x1 = 0.5135	0.455
363.15 K, 1582 kPa, x1 = 0.5701	0.458
363.15 K, 1582 kPa, x1 = 0.6215	0.45
363.15 K, 1582 kPa, x1 = 0.6684	0.434
363.15 K, 1582 kPa, x1 = 0.7112	0.415
363.15 K, 1582 kPa, x1 = 0.7507	0.387
363.15 K, 1582 kPa, x1 = 0.787	0.356
363.15 K, 1582 kPa, x1 = 0.8206	0.321
363.15 K, 1582 kPa, x1 = 0.8518	0.283
363.15 K, 1582 kPa, x1 = 0.8808	0.242
363.15 K, 1582 kPa, x1 = 0.9079	0.199
363.15 K, 1582 kPa, x1 = 0.9331	0.152
363.15 K, 1582 kPa, x1 = 0.9568	0.103
363.15 K, 1582 kPa, x1 = 0.9791	0.0532
413.15 K, 1376 kPa, x1 = 0.1148	0.153
413.15 K, 1376 kPa, x1 = 0.2149	0.261
413.15 K, 1376 kPa, x1 = 0.303	0.335
413.15 K, 1376 kPa, x1 = 0.3811	0.385
413.15 K, 1376 kPa, x1 = 0.4509	0.416
413.15 K, 1376 kPa, x1 = 0.5136	0.431
413.15 K, 1376 kPa, x1 = 0.5702	0.434
413.15 K, 1376 kPa, x1 = 0.6215	0.427
413.15 K, 1376 kPa, x1 = 0.6684	0.413
413.15 K, 1376 kPa, x1 = 0.7113	0.396
413.15 K, 1376 kPa, x1 = 0.7507	0.37
413.15 K, 1376 kPa, x1 = 0.787	0.341
413.15 K, 1376 kPa, x1 = 0.8206	0.308
413.15 K, 1376 kPa, x1 = 0.8518	0.271
413.15 K, 1376 kPa, x1 = 0.8808	0.232
413.15 K, 1376 kPa, x1 = 0.9079	0.19
413.15 K, 1376 kPa, x1 = 0.9332	0.145
413.15 K, 1376 kPa, x1 = 0.9568	0.0981
413.15 K, 1376 kPa, x1 = 0.9791	0.0501
